{"source": "patent US7550509B2", "about": "“Carisoprodol articles and methods” (Mutual Pharmaceutical Company, Inc., priority 2006, dated 2009)", "key": {"[1]": {"conditions": "cited from earlier work"}, "[2]": {"test": "Biostudy of carisoprodol (SOMA®) pharmacokinetics under non-fasted and fasted conditions, randomized single-dose two-way crossover", "format": "in vivo, human (healthy adults)", "conditions": "for AUC(0-inf) / AUC(0-t) / Tmax / Cmax: plasma; for AUC(0-inf): read-out: AUC0-INF, geometric mean (ln-transformed); for AUC(0-t): read-out: AUC0-t, geometric mean (ln-transformed); for Tmax: read-out: Tmax, least sq. mean (non-transformed); for Cmax: single dose SOMA®, 22 subjects, read-out: Cmax, geometric mean (ln-transformed)", "method": "A biostudy was conducted under fasted and non-fasted conditions.\nThe dosage form is administered with 240 ml of water during the fasting period, and water can be allowed ad libitum after 2 hours.\nAs used herein, for the purposes of biostudy and the determination of bioequivalence, a non-fasted patient is defined as a patient who fasts for at least 10 hours overnight and then consumes an entire test meal within 30 minutes of first ingestion. The dosage form is administered with 240 mL of water at 30 minutes after first ingestion of the meal. No food is then allowed for at least 4 hours post-dose. Water can be allowed ad libitum after 2 hours. A high fat test meal provides approximately 1000 calories to the patient of which approximately 50% of the caloric content is derived from fat content of the meal. A representative high fat high calorie test meal comprises 2 eggs fried in butter, 2 strips of bacon, 2 slices of toast with butter, 4 ounces of hash brown potatoes, and 8 ounces of whole milk to provide 150 protein calories, 250 carbohydrate calories, and 500 to 600 fat calories.\nThe study was designed as a randomized, single-dose two-way crossover to compare the pharmacokinetic parameters of SOMA®. Twenty-four healthy adults participated in this comparison study and 22 of the subjects completed the study. Subjects received two separate drug administration treatments in assigned periods, one treatment per period, according to the randomization schedule. Dosing days were separated by a washout period of at least seven days. Blood samples were drawn prior to dosing (pre-dose) and at 0.33, 0.67, 1, 1.5, 2, 2.5, 3, 3.5, 4, 5, 6, 7, 8, 10, 12, 18, and 24 hours post-dose. The samples were then analyzed for carisoprodol and meprobamate.\nThe following pharmacokinetic parameters may be determined from the plasma concentration data:\nThe area under the plasma concentration versus time curve [AUCt] may be calculated using the linear trapezoidal rule from the zero time point to the last measured concentration.\nThe area under the plasma concentration versus time curve from zero to infinity [AUC0-INF] may be calculated by adding Ct/Kelm to AUC where Ct is the last measured concentration and Kelm is the elimination rate constant.\nThe maximum observed plasma concentration [Cmax] may be obtained by inspection. The Cmax may also be designated as CMAX.\nThe time to maximum plasma concentration [Tmax] may be obtained by inspection. If the same maximum plasma concentration occurs at more than one time point, the first may be chosen as Tmax.\nThe terminal elimination rate constant [Kelm] may be obtained from the slope of the line, fitted by linear least squares regression, through the terminal points of the 1n(base e) of the concentration versus time plot for these points.\nThe half-life [T1/2] may be calculated by the equation T1/2=0.693/Kelm."}, "[3]": {"conditions": "carisoprodol, non-fasted compared to fasted"}, "[4]": {"conditions": "carisoprodol, non-fasted vs fasted"}, "[5]": {"conditions": "human, oral, carisoprodol in plasma, fasted"}, "[6]": {"conditions": "human, oral, carisoprodol in plasma, non-fasted"}}, "note": "Like-named read-outs stand apart in the source and are kept apart here.", "data": [{"smiles": "CCCC(C)(COC(N)=O)COC(=O)NC(C)C", "note": "(stereo not drawn) [carisoprodol, N-isopropyl-2-methyl-2-propyl-1,3-propanediol dicarbamate]", "values": [{"measurement": "solubility in organic solvents (in words)", "setting": "[1]; alcohol, chloroform, and acetone", "value": "freely soluble"}, {"measurement": "solubility in water", "setting": "[1]; between 25 to 50° C.", "value": "300 to 1400", "unit": "µg/mL"}, {"measurement": "solubility in water (in words)", "setting": "[1]; water", "value": "very sparingly soluble"}, {"measurement": "T½, least sq. mean", "setting": "[2]; carisoprodol in plasma, fasted", "value": 1.95, "unit": "h"}, {"measurement": "kelm (elimination rate constant), least sq. mean", "setting": "[2]; carisoprodol in plasma, fasted", "value": 0.376}, {"measurement": "kelm (elimination rate constant), least sq. mean", "setting": "[2]; carisoprodol in plasma, non-fasted", "value": 0.3713}, {"measurement": "decrease in the geometric mean of Cmax in the presence of food", "setting": "[2]; [3]", "value": 16, "unit": "%"}, {"measurement": "effect of food on AUC (AUC0-t and AUC0-INF) (in words)", "setting": "[2]; [3]", "value": "substantially unchanged"}, {"measurement": "effect of food on Cmax (in words)", "setting": "[2]; [3]", "value": "decreases"}, {"measurement": "AUC0-INF, % Ratio of geometric means", "setting": "[2]; [4]", "value": 96.8, "unit": "%"}, {"measurement": "AUC0-t, % Ratio of geometric means", "setting": "[2]; [4]", "value": 96.1, "unit": "%"}, {"measurement": "Cmax, % Ratio of geometric means", "setting": "[2]; [4]", "value": 83.8, "unit": "%"}, {"measurement": "Tmax, % Ratio", "setting": "[2]; [4]", "value": 137.5, "unit": "%"}, {"measurement": "T½, % Ratio", "setting": "[2]; [4]", "value": 100, "unit": "%"}, {"measurement": "kelm, % Ratio", "setting": "[2]; [4]", "value": 98.7, "unit": "%"}, {"measurement": "half-life", "setting": "[2]; human, oral, carisoprodol in plasma, non-fasted, read-out: T½, least sq. mean (converted)", "value": 1.95, "unit": "h"}, {"measurement": "AUC(0-inf)", "setting": "[2]; [5]", "value": 6510, "unit": "ng·h/mL"}, {"measurement": "AUC(0-t)", "setting": "[2]; [5]", "value": 6380, "unit": "ng·h/mL"}, {"measurement": "Tmax", "setting": "[2]; [5]", "value": 1.63, "unit": "h"}, {"measurement": "Cmax", "setting": "[2]; [5]", "value": 2000, "unit": "ng/mL"}, {"measurement": "Cmax", "setting": "[2]; human, oral, carisoprodol in plasma, non-fasted (high fat meal)", "value": 1680, "unit": "ng/mL"}, {"measurement": "AUC(0-inf)", "setting": "[2]; [6]", "value": 6310, "unit": "ng·h/mL"}, {"measurement": "AUC(0-t)", "setting": "[2]; [6]", "value": 6140, "unit": "ng·h/mL"}, {"measurement": "Tmax", "setting": "[2]; [6]", "value": 2.24, "unit": "h"}]}]}
